# Where two headings read alike, the source gives them in different places.
# What was measured:
# CAL-27 cells [1] = experiment: CCK-8 proliferation assay, CAL-27; type: cell-based; details: Homo sapiens
# Experimental: (§1) The OSCC cell lines CAL-27 (STCC12901P, Servicebio, Wuhan, China) and SAS (CC0706, Cellcook, Guangzhou, China) were cultured in Dulbecco Modified Eagle Medium F12 (DMEM/F12) (G4610-500ML, Servicebio, Wuhan, China) supplemented with 10% fetal bovine serum (FBS) (AB-FBS-DIA1050, ABW, Shanghai, China) and 100 U/mL penicillin-streptomycin-gentamicin solution (G4014-100ML, Servicebio, Wuhan, China). VERO cells were cultured in DMEM (G4524-500ML, Servicebio, Wuhan, China) supplemented with 10% FBS (AB-FBS-DIA1050, ABW, China) and 100 U/mL penicillin–streptomycin–gentamicin solution (G4014-100ML, Servicebio, Wuhan, China). […] were maintained at 37 °C in a humidified 5% CO2 incubator. For experiments, 1 × 10^6 cells were seeded per T-25 culture flask.
# (§2) CAL-27, SAS, and VERO cells were seeded in 96-well plates at a density of 5000 cells per well. At specified time intervals, 10 μL of Cell Counting Kit-8 (CCK-8) reagent (K1018, Apexbio, Boston, MA, USA) was added to each well and incubated for 2 h. Absorbance at 450 nm was measured using a microplate reader (Infinite M200 Pro, Tecan Group, Männedorf, Switzerland).
# SAS cells [2] = experiment: CCK-8 proliferation assay, SAS; type: cell-based
# Experimental: as §1, §2
# VERO cells = experiment: CCK-8 cytotoxicity assay, VERO; type: cell-based, African green monkey; details: Chlorocebus sabaeus; VERO, CCK-8, 24 h
# Experimental: as §1, §2
# COX-2 mRNA in SAS cells = experiment: RT-qPCR COX-2 mRNA, SAS; type: cell-based; details: working concentrations, 24 h, vs control
# Experimental: (§3) Equal amounts of RNA were reverse transcribed into cDNA using the Reverse Transcription Kit (AG11705, Accurate Biology, Guangzhou, China) following the manufacturer’s instructions. Quantitative PCR was performed on a QIAGEN Rotor-GeneQ system (9001862, QIAGEN, Hilden, Germany) with SYBR Green Pro Taq HS Premix II (AG11702, Accurate Biology, China).
# (§4) The PCR protocol consisted of initial denaturation at 95 °C for 30 s, followed by 40 cycles of 95 °C for 5 s and 60 °C for 30 s. All reactions were performed in triplicate, with melting curve analysis confirming amplification specificity. The expression of the target genes was normalized to GAPDH, and fold changes were calculated in the manner of the 2^−ΔΔCT .
# COX-2 in SAS cells = experiment: ELISA COX-2, SAS; type: cell-based; details: working concentrations, vs control (compounds also vs CXB)
# Experimental: With the aim of determining COX-2 concentrations in OSCC cell lines after treatment at the predefined working concentrations, we used a specialized ELISA kit (F0564-A, FANKEW, Shanghai, China), following the manufacturer’s instructions. Briefly, 40 μL of the sample dilution and 10 μL of the sample (sample final dilution is 5-fold) were added to testing sample wells and incubated for 30 min at 37 °C. After that, discard the liquid and wash the plate using washing buffer. Repeat 5 times, drying by patting. Subsequently, samples were incubated with 50 μL of HRP-conjugate reagent in each well for 30 min at 37 °C. Wash 5 times, then add Chromogen Solution A and B and incubate for 10 min at 37 °C. Lastly, 50 μL of stop solution was added to each well to stop the reaction, and the sample absorbance was measured using a microplate reader at 450 nm after adding stop solution within 15 min.
# [3] = test system: MMP2 mRNA in CAL-27 cells; experiment: RT-qPCR MMP2 mRNA, CAL-27; type: cell-based; details: CAL-27, 24 h, vs control
# Experimental: as §3, §4
# [4] = test system: MMP9 mRNA in CAL-27 cells; experiment: RT-qPCR MMP9 mRNA, CAL-27; type: cell-based; details: CAL-27, 24 h, vs control
# Experimental: as §3, §4
# MMP2 mRNA in SAS cells = experiment: RT-qPCR MMP2 mRNA, SAS; type: cell-based; details: vs control
# Experimental: as §3, §4
# CAL-27 cells [5] = experiment: Hoechst 33342 staining, CAL-27; type: cell-based; details: CAL-27, 24 h, working concentrations, vs NC
# Experimental: (§5) After 24 h drug treatment at the predefined working concentrations, CAL-27 and SAS cells were dyed with 300 μL Hoechst 33342 staining (C1022, Beyotime, China) in the dark at 37 °C for 10 min. Then, the residual Hoechst 33342 staining was washed 3 times with 1 × phosphate-buffered saline (PBS, G4250-500ML, Servicebio, China). The images were then immediately examined under an inverted fluorescence microscope (CX23, Olympus, Japan).
# SAS cells [6] = experiment: Hoechst 33342 staining, SAS; type: cell-based; details: 24 h, working concentrations, vs NC
# Experimental: as §5
# CAL-27 cells [7] = experiment: Annexin V-FITC/PI flow cytometry apoptosis, CAL-27; type: cell-based; details: CAL-27, 24 h, vs control
# Experimental: (§6) After 24 h drug treatment at the predefined working concentrations, CAL-27 and SAS cells were trypsinized, centrifuged (200× g, 5 min, RT), and washed twice with 1 mL ice-cold PBS. Cell aliquots ((5–10) × 10^4 cells) were resuspended in 195 μL Annexin V-FITC binding buffer, followed by sequential addition of 5 μL Annexin V-FITC and 10 μL propidium iodide (PI) (BMS500FI-100, Thermo Fisher Scientific, Wien, Austria) with gentle mixing. After 10–20 min of incubation in darkness (20–25 °C) with intermittent resuspension (2–3 times), samples were placed on ice and analyzed within 1 h using a flow cytometer (CytExpert software [Version 2.4.0.28, Beckman Coulter, Brea, CA, USA]). Triplicate independent experiments were performed for statistical analysis.
# SAS cells [8] = experiment: Annexin V-FITC/PI flow cytometry apoptosis, SAS; type: cell-based; details: 24 h, vs control
# Experimental: as §6
smiles,measurement,setting,value
"Cc1ccc(-c2cc(C(F)(F)F)nn2-c2ccc(S(N)(=O)=O)cc2)cc1 [CXB, celecoxib, reference compound]",IC50,"CAL-27 cells [1]; CAL-27, 24 h, read-out: IC50 (range), CAL-27, CCK-8, 24 h, given as a range",52.4 to 61.9 µM
same,IC50,"CAL-27 cells [1]; CAL-27, CAL-27, CCK-8, read-out: IC50 CAL-27",57 µM
same,IC50,"SAS cells [2]; 24 h, read-out: IC50 (range)",53.9 to 61.5 µM
same,IC50,"SAS cells [2]; SAS, CCK-8, read-out: IC50 SAS",57.6 µM
same,IC50,VERO cells,243 µM
same,COX-2 mRNA level,COX-2 mRNA in SAS cells,marked upregulation
same,COX-2 level (ELISA),COX-2 in SAS cells,no marked difference
same,MMP2 mRNA expression,[3],even lower
same,MMP9 mRNA expression,[4],even lower
same,MMP2 mRNA expression,MMP2 mRNA in SAS cells,markedly suppressed
same,"apoptotic cells (Hoechst 33342, fluorescence microscopy)",CAL-27 cells [5],significant increase
same,"apoptotic cells (Hoechst 33342, fluorescence microscopy)",SAS cells [6],significant increase
same,total apoptotic cell population (early and late apoptosis),CAL-27 cells [7],comparable pro-apoptotic efficacy
same,total apoptotic cell population (early and late apoptosis),SAS cells [8],comparable pro-apoptotic efficacy

# — PMC12469672, “Effects on Oral Squamous Carcinoma Cell Lines and Their Mechanisms of Pyrazole N-Aryl Sulfonate: A Novel Class of Selective Cyclooxygenase-2 Inhibitors” (International Journal of Molecular Sciences, 2025)
